pIC50: −log10 of the molar value. Calls of active or inactive are those of the source. The calls are words filed in the database; no cut-off is given here.
Experiments:
[1] = target: T1, Histone-lysine N-methyltransferase SUV39H1 (Homo sapiens) (UniProt O43463); assay: Displacement of 3H-SAM from SUV39H1 (unknown origin) using biotinylated-histone H3 peptide as substrate at 30 uM incubated for 45 mins by SPA assay relative to control
T1 sequence (whole entry): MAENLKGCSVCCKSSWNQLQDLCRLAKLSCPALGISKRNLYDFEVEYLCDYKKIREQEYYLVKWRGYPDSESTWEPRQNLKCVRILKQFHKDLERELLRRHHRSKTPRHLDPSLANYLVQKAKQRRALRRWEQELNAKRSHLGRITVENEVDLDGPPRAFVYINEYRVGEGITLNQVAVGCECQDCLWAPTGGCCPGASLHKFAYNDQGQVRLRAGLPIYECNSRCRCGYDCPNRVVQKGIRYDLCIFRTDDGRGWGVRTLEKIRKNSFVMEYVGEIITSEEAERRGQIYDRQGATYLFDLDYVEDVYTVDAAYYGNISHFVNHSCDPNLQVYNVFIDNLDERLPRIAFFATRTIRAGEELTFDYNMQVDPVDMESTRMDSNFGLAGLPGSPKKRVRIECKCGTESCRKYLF

[2] = target: T2, Histone-lysine N-methyltransferase SMYD3 (Homo sapiens) (UniProt Q9H7B4); assay: Displacement of 3H-SAM from SMYD3 (unknown origin) using biotinylated-MAP3K2 as substrate at 30 uM incubated for 45 mins by SPA assay relative to control
T2 sequence (whole entry): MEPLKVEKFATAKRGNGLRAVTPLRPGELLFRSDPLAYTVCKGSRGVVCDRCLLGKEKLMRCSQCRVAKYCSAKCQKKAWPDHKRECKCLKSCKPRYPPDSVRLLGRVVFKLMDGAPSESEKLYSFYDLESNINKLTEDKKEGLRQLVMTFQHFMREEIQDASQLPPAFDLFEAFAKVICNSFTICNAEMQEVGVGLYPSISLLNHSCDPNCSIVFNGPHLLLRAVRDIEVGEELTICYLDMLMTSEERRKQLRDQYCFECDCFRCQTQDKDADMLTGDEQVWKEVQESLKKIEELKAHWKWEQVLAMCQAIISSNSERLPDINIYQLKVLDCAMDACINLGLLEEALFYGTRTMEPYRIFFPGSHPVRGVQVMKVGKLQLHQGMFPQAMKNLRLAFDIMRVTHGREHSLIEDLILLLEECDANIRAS

[3] = target: Histone-lysine N-methyltransferase, H3 lysine-79 specific (Homo sapiens) (UniProt Q8TEK3); assay: Displacement of 3H-SAM from DOT1L (unknown origin) at 30 uM incubated for 1 hr in presence of substrate by SPA assay relative to control
[4] = target: T3, Protein arginine N-methyltransferase 3 (Homo sapiens, UniProt O60678); assay: Displacement of 3H-SAM from human PRMT3 at 50 uM in presence of substrate by SPA assay
Target sequence in this assay (O60678 2-531 limits assumed): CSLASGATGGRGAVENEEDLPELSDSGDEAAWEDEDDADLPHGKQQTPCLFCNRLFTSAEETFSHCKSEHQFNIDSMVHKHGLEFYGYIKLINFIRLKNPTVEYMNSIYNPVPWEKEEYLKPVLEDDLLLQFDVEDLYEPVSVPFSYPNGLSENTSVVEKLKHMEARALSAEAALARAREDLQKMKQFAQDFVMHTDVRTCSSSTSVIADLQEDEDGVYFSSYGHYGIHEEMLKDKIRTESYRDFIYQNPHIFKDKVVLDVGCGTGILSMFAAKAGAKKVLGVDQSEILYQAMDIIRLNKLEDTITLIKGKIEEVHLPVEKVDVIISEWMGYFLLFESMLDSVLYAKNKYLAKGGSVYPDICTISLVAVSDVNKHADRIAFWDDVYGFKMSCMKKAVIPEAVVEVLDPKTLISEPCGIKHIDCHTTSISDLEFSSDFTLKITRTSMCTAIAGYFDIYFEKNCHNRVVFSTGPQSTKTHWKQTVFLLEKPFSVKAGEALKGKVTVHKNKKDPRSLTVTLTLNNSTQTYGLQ

[5] = target: T4, Histone-arginine methyltransferase CARM1 (Homo sapiens) (UniProt Q86X55); assay: Displacement of 3H-SAM from human PRMT4 at 50 uM in presence of substrate by SPA assay
T4 sequence (whole entry): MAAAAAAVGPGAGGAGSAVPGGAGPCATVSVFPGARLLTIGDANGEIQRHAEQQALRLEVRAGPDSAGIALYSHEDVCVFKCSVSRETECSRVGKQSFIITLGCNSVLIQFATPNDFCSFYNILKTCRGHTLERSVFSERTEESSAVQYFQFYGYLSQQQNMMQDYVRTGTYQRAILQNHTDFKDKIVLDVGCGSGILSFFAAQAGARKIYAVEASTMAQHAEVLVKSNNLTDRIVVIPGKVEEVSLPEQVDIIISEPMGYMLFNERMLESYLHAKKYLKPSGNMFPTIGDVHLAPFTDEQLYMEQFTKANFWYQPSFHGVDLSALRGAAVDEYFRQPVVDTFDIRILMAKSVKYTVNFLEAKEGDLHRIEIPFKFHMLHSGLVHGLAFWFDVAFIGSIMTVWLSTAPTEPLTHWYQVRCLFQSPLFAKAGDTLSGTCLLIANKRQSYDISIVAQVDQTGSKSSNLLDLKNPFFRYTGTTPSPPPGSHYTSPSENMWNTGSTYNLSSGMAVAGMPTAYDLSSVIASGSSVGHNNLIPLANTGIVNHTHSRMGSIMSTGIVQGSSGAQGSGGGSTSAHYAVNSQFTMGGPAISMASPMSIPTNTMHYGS

[6] = target: Protein arginine N-methyltransferase 5 (Homo sapiens) (UniProt O14744); assay: Displacement of 3H-SAM from human PRMT5 at 50 uM in presence of substrate by SPA assay
[7] = target: T5, Protein arginine N-methyltransferase 6 (Homo sapiens, UniProt Q96LA8); assay: Displacement of 3H-SAM from human PRMT6 at 50 uM in presence of substrate by SPA assay
Target sequence in this assay (Q96LA8 whole entry, looked up): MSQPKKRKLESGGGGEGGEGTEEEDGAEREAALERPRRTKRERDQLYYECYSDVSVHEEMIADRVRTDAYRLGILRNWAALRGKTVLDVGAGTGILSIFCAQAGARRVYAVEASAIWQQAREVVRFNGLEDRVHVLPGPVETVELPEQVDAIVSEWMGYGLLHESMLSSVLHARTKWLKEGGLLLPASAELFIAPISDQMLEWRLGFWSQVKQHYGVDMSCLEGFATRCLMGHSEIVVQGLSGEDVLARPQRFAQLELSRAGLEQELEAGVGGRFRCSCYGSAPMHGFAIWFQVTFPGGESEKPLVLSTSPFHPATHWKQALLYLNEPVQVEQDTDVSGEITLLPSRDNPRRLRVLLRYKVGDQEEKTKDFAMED

[8] = target: T6, Protein arginine N-methyltransferase 7 (Homo sapiens) (UniProt Q9NVM4); assay: Displacement of 3H-SAM from human PRMT7 at 50 uM in presence of substrate by SPA assay
T6 sequence (whole entry): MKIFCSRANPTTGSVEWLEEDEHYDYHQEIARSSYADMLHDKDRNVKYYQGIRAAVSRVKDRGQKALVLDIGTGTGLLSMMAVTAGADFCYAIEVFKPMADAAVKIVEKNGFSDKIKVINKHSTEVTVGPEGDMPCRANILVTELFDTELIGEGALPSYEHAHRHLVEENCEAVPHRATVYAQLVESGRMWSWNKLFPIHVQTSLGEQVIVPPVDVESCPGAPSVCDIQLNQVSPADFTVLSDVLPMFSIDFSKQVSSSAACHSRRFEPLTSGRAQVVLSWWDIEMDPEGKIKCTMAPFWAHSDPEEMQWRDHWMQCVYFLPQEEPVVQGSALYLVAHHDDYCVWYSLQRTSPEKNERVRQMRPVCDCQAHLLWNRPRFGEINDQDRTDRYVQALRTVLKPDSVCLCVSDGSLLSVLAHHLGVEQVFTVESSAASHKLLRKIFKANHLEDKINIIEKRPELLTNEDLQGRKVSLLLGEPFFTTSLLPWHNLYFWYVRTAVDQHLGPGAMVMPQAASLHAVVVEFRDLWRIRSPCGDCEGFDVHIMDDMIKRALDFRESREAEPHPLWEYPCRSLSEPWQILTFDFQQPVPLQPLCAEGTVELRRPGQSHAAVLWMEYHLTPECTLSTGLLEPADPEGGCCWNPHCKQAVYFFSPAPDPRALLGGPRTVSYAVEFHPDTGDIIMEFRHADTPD

[9] = target: T7, Protein arginine N-methyltransferase 8 (Homo sapiens, UniProt Q9NR22); assay: Displacement of 3H-SAM from human PRMT8 at 50 uM in presence of substrate by SPA assay
Target sequence in this assay (Q9NR22 2-394 limits assumed): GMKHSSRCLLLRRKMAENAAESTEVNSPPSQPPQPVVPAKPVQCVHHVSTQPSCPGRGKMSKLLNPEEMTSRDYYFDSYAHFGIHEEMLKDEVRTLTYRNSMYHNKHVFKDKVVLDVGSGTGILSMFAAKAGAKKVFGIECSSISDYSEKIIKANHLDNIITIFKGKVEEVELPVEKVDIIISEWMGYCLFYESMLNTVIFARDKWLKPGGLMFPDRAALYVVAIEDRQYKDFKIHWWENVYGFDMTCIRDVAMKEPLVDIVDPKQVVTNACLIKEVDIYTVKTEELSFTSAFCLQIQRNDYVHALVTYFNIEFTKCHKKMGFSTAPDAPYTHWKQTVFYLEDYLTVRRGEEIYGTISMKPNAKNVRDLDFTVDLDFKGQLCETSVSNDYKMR

[10] = target: T8, Protein arginine N-methyltransferase 9 (Homo sapiens) (UniProt Q6P2P2); assay: Displacement of 3H-SAM from human PRMT9 at 50 uM in presence of substrate by SPA assay
T8 sequence (whole entry): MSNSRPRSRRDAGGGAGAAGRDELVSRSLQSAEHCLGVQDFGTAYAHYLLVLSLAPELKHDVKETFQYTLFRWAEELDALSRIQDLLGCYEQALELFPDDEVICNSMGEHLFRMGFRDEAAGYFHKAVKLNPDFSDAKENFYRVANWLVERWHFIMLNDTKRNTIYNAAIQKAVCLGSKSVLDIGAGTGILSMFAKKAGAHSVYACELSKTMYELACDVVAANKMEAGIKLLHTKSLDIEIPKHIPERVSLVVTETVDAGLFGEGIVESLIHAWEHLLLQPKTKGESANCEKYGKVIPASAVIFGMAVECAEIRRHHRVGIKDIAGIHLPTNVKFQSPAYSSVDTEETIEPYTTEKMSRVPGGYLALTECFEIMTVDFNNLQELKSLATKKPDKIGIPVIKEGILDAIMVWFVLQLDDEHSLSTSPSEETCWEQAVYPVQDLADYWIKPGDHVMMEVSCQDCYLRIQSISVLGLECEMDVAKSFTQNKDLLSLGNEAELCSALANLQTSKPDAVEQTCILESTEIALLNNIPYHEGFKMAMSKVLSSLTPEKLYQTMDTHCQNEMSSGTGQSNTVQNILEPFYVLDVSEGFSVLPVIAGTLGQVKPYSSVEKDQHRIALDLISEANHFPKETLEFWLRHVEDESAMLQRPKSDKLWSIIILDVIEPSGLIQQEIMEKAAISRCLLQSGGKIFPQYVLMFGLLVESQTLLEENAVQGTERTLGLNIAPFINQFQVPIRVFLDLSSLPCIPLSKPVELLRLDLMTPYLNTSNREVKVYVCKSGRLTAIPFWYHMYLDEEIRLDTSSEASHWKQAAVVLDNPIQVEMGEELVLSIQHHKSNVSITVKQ

[11] = target: T3, Protein arginine N-methyltransferase 3; assay: Inhibition of PRMT3 (unknown origin)
Target sequence in this assay (O60678 whole entry): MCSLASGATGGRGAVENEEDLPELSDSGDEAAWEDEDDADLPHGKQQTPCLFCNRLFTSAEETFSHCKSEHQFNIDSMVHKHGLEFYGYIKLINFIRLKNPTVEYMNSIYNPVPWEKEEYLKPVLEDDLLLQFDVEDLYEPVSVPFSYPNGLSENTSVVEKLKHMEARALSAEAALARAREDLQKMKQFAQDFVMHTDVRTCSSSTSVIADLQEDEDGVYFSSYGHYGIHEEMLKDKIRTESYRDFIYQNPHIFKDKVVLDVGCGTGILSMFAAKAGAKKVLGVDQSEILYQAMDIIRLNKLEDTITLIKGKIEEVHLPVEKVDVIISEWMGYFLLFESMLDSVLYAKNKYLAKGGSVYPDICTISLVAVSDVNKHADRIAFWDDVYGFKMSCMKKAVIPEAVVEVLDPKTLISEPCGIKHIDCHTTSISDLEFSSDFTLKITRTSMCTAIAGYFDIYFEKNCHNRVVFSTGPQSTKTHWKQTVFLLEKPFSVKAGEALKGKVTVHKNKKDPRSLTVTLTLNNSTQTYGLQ

[12] = target: T9, Histone-arginine methyltransferase CARM1 (Homo sapiens, UniProt Q86X55); assay: Inhibition of PRMT4 (unknown origin)
T9 sequence (Q86X55 whole entry): T4 sequence (whole entry)

[13] = target: T5, Protein arginine N-methyltransferase 6; assay: Inhibition of PRMT6 (unknown origin)
Target sequence in this assay (Q96LA8 whole entry): as the sequence (Q96LA8 whole entry, looked up) above

[14] = target: T7, Protein arginine N-methyltransferase 8; assay: Inhibition of PRMT8 (unknown origin)
Target sequence in this assay (Q9NR22 whole entry): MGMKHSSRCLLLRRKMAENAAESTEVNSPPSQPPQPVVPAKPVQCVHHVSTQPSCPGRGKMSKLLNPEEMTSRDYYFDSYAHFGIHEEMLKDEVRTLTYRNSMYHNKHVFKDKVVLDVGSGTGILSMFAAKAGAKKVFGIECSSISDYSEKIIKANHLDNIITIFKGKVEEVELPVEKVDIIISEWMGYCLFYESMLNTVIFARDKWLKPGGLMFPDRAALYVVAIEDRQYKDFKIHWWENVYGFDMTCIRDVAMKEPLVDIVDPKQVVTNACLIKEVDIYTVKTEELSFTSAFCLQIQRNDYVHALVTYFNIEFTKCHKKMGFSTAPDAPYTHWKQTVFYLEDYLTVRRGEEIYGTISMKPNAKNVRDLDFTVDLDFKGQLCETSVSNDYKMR

[15] = target: Protein arginine N-methyltransferase 1 (Homo sapiens, UniProt Q99873); assay: Inhibition of PRMT1 (unknown origin)
Sequence of Protein arginine N-methyltransferase 1 (Q99873 whole entry): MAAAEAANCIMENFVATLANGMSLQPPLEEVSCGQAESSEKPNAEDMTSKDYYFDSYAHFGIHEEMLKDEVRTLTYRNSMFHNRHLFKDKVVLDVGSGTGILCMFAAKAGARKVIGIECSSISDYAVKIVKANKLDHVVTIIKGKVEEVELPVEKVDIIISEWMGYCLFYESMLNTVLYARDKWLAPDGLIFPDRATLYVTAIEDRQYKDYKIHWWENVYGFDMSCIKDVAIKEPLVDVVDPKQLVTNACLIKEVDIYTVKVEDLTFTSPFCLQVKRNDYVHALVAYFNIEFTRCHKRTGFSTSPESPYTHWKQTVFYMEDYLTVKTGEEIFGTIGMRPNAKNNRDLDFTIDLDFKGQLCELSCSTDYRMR

Sequence of Protein arginine N-methyltransferase 5 (Homo sapiens) (O14744 whole entry): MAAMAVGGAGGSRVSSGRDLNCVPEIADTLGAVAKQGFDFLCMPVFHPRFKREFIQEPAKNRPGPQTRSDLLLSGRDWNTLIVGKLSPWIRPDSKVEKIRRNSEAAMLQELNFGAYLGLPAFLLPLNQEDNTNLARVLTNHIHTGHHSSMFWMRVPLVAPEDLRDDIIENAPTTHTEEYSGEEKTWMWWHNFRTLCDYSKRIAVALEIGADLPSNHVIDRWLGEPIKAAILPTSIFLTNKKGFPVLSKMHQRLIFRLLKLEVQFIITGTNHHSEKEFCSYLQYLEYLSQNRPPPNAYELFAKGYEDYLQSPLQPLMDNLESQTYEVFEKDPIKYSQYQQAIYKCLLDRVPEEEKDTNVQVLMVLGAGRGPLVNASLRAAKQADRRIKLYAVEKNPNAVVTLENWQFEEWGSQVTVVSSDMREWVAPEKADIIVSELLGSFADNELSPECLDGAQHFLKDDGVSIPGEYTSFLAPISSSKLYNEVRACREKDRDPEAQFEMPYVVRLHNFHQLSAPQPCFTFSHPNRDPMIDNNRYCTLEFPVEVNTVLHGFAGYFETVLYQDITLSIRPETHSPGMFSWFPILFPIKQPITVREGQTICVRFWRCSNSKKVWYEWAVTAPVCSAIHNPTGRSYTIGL
Sequence of Histone-lysine N-methyltransferase, H3 lysine-79 specific (Homo sapiens) (Q8TEK3 whole entry, looked up): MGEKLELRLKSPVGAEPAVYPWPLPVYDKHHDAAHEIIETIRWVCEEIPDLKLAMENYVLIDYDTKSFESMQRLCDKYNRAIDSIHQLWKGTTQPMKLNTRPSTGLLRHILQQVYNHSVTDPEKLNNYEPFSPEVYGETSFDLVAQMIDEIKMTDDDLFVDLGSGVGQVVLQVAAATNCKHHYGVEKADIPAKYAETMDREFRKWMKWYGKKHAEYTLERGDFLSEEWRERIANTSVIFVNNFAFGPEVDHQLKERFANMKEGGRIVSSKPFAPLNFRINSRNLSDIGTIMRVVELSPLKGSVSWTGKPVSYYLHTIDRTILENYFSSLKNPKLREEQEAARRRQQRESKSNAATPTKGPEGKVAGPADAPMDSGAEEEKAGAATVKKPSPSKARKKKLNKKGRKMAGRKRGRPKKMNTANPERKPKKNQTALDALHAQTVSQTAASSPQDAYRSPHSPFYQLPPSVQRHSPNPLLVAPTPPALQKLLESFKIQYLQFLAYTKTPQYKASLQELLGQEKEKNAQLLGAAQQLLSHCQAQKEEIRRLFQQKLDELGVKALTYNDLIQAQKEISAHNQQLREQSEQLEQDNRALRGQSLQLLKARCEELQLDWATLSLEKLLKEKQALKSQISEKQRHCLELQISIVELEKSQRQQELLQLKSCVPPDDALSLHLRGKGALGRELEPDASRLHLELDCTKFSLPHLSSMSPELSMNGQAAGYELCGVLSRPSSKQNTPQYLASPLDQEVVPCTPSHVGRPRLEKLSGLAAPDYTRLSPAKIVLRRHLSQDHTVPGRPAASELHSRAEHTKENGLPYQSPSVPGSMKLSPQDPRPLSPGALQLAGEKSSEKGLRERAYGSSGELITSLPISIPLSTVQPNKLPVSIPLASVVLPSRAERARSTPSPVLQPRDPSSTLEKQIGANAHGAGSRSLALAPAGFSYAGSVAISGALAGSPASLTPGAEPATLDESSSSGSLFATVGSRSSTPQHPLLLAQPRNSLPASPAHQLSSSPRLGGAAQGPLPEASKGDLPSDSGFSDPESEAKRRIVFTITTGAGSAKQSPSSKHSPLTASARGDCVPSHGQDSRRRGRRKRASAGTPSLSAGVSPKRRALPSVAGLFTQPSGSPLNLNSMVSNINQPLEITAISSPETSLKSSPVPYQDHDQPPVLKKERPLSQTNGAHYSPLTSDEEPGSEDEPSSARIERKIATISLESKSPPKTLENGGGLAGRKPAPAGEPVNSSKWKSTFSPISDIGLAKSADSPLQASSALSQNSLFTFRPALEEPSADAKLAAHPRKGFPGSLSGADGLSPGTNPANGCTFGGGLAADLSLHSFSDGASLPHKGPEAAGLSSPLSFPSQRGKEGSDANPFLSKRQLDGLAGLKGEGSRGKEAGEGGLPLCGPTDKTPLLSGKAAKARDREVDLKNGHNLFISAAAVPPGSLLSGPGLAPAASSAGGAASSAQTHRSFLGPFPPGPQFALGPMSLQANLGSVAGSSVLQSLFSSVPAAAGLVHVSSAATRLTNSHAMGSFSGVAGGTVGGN

SMILES | inhibition [1] | inhibition [2] | inhibition [3] | inhibition [4] | inhibition [5] | inhibition [6] | inhibition [7] | inhibition [8] | inhibition [9] | inhibition [10] | pIC50 [11] | pIC50 [12] | pIC50 [13] | pIC50 [14] | pIC50 [15]
CN(C)CCCNC(=O)c1ccc2c(Nc3ccc(CN)cc3)ncnc2c1 | < 25% | < 25% | 0% | Active | Active | Active | Active | Active | Active | Active | – | – | – | – | –
CC(C)Oc1ccc(-c2c[nH]cc2CNCCN)cc1 | – | – | – | – | – | – | – | – | – | – | 6.92 | 7.08 | 8.40 | 8.30 | 7.52
